Like-named read-outs stand apart in the source and are kept apart here. Peptide text beside a SMILES is read from it.
Key:
Format in all cases: cell-based, human
[1] = test system: various cancer cell lines; test: MTT cytotoxicity assay, various cancer cell lines; conditions: Fig. 1a
Description: Eleven human cancer cell lines (including MCF-7 breast carcinoma, Bcap-37 breast carcinoma, MDA-MB-231 breast adenocarcinoma, HeLa cervical carcinoma, BGC-823 gastric carcinoma, A375 melanoma, NCI-H446 small cell lung carcinoma, HO-8910 ovarian carcinoma, SMMC-7721 hepatocellular carcinoma, LK-2 lung squamous cells carcinoma, and BEL-7402 hepatocellular carcinoma) were obtained from the CBCAS (Cell Bank of the Chinese Academy of Sciences, Shanghai, China). Human HaCaT keratinocytes were obtained from KeyGEN Biotech (Nanjing, China). Cells were routinely cultured in RPMI 1640 or L15 or DMEM containing 10% neonatal bovine serum (NBS) or fetal bovine serum (FBS), 1% l-glutamine, 1% sodium pyruvate, 50 U/mL penicillin and 50 μg/mL streptomycin. The cells were maintained at 37 °C in a humidified atmosphere of 5% CO2.
Cell viability was detected by MTT assay. The cells were seeded at 5 × 10^3 cells/well in 96-well plates 24 h before the peptide treatment. After 1, 6, 24, or 48 h of incubation with various concentrations of peptides (20–100 µM), 10 μL of the 5 mg/mL MTT solution was added to each well and incubated for additional 4 h. The purple-blue MTT formazan precipitate was dissolved in 150 μL of DMSO. The absorbance was determined using a microplate reader at 490 nm. […] The data were expressed as a percentage of the inhibition rate for the viable cells. […]

HaCaT cells [2] = test: MTT cytotoxicity assay, non-cancerous HaCaT cells; conditions: 1-hour peptide exposure
Experimental: (§1) Cell viability was detected by MTT assay. The cells were seeded at 5 × 10^3 cells/well in 96-well plates 24 h before the peptide treatment. After 1, 6, 24, or 48 h of incubation with various concentrations of peptides (20–100 µM), 10 μL of the 5 mg/mL MTT solution was added to each well and incubated for additional 4 h. The purple-blue MTT formazan precipitate was dissolved in 150 μL of DMSO. The absorbance was determined using a microplate reader at 490 nm. The experiments were performed in triplicate. The data were expressed as a percentage of the inhibition rate for the viable cells. For the thermo-sensitivity test, MCF-7 cells were treated with L-K6 at 4 °C or 37 °C for 30 min and then subjected to the MTT assay. For energy-dependent assay, the L-K6-treated MCF-7 cells were pre-incubated with 40 μM NaN3 for 30 min[39] and then subjected to the MTT assay. All experiments had been performed in triplicate.

MCF-7 cells [3] = test: Cellular uptake by confocal microscopy, MCF-7 cells; conditions: FITC-labeled L-K6, confocal microscopy, after 5 min of peptide exposure
Experimental: (§2) MCF-7 or HaCaT cells were incubated with various concentrations of FITC-labeled L-K6 for 5, 10 or 60 min. Myelin and other lipophilic areas on cell membrane were stained with the red-orange fluorescent tracker DiI. The FITC-labeled peptides were traced and recorded at each time point using confocal microscopy.

MCF-7 cells [4] = test system: MCF-7 cells
Experimental: as §1

HaCaT cells [5] = test: Cellular uptake by confocal microscopy, HaCaT cells; conditions: FITC-labeled L-K6, confocal microscopy, 1-hour exposure
Experimental: as §2

| Cellular uptake into MCF-7 cells (MCF-7 cells [3]) | IC50 (MCF-7 cells [4]; 1 h) [µM] | IC50 (MCF-7 cells [4]; 6 h) [µM] | IC50 (MCF-7 cells [4]; 24 h) [µM] | IC50 (MCF-7 cells [4]; 48 h) [µM] | Cellular uptake into HaCaT cells (HaCaT cells [5]) | SMILES | Cytotoxicity on cancer cell lines relative to L-K6 (MTT) [1] | Toxicity against normal HaCaT cells (MTT) (HaCaT cells [2]) |
| --- | --- | --- | --- | --- | --- | --- | --- | --- |
| – | – | – | – | – | – | CC[C@H](C)[C@H](N)C(=O)N[C@@H](CCCCN)C(=O)N[C@@H](CCCCN)C(=O)N[C@H](C(=O)N[C@H](C(=O)N[C@@H](CO)C(=O)N[C@@H](CCCCN)C(=O)N[C@H](C(=O)N[C@@H](CCCCN)C(=O)N[C@@H](CCCCN)C(=O)N[C@@H](CC(C)C)C(=O)N[C@@H](CC(C)C)C(N)=O)[C@@H](C)CC)C(C)C)[C@@H](C)CC [L-K5 V1] (H-IKKIVSKIKKLL-NH2) | dramatically weakened this cytotoxicity | – |
| – | – | – | – | – | – | CC[C@H](C)[C@H](N)C(=O)N[C@@H](CCCCN)C(=O)N[C@@H](CCCCN)C(=O)N[C@H](C(=O)N[C@H](C(=O)N[C@@H](CO)C(=O)N[C@@H](CCCCN)C(=O)N[C@H](C(=O)N[C@@H](CCCCN)C(=O)N[C@@H](CCCCN)C(=O)N[C@@H](CC(C)C)C(=O)N[C@@H](CC(C)C)C(=O)N[C@@H](CCCCN)C(N)=O)[C@@H](C)CC)C(C)C)[C@@H](C)CC [L-K6 V1] (H-IKKIVSKIKKLLK-NH2) | dramatically weakened this cytotoxicity | – |
| rapidly internalize into cells | 38 | 34 | 31 | 23 | negligible cellular uptake | CC[C@H](C)[C@H](N)C(=O)N[C@@H](CCCCN)C(=O)N[C@@H](CCCCN)C(=O)N[C@H](C(=O)N[C@@H](CC(C)C)C(=O)N[C@@H](CO)C(=O)N[C@@H](CCCCN)C(=O)N[C@H](C(=O)N[C@@H](CCCCN)C(=O)N[C@@H](CCCCN)C(=O)N[C@@H](CC(C)C)C(=O)N[C@@H](CC(C)C)C(=O)N[C@@H](CCCCN)C(N)=O)[C@@H](C)CC)[C@@H](C)CC [L-K6] (H-IKKILSKIKKLLK-NH2) | – | minimum toxicity |

From publication PMC5557901, “Cell surface binding, uptaking and anticancer activity of L-K6, a lysine/leucine-rich peptide, on human breast cancer MCF-7 cells” (Scientific Reports, 2017)
